# Test results published in patent publication US12697343B2, “Intravenous istaroxime for the treatment of acute heart failure” (Seismic Pharmaceuticals Operations LLC, priority 2021, dated 2026).
# Structures can show the parent of a compound that is named as a salt.
# Tests used:
# [1] = system: patients hospitalized for acute heart failure (AHF); experiment: Self-reported dyspnoea by visual analogue scale (VAS); format: in vivo, human
# Method: (§1) The primary efficacy endpoint was the change from baseline to 24 h after the start of the infusion in the E/e ratio assessed by tissue Doppler echocardiography. Secondary endpoints included the change from baseline to 24 h of other echocardiography parameters: LVEF, left ventricular end-systolic and end-diastolic volumes, stroke volume index, E, A, E/A ratio, and S′: changes in dyspnoea by visual analogue scale (VAS) and in NT-proBNP from baseline to 24 h: proportion of patients with hospital readmissions or emergency visits for cardiovascular reasons by day 30; proportion of patients with episodes of in-hospital worsening heart failure to day 4, and length of stay. In-hospital worsening heart failure was defined by the need to increase the dose or reinitiate intravenous therapy with diuretics and/or other inotropic agents to day 4. Safety endpoints were assessed throughout the study and included: incidence of adverse events (AEs): change in vital signs and in 12-lead electrocardiographic (ECG) parameters: incidence of clinically or haemodynamically significant episodes of supraventricular or ventricular arrhythmias detected by continuous ECG monitoring: standard laboratory parameters: renal function: cardiac troponin T (cTnT): incidence of cTnT elevations, and mortality at day 30. Elevations in cTnT were considered significant if they were >50% or >20% from baseline values, for patients with cTnT below or above the 99% upper reference limit at baseline, respectively.
# The study design included a 24 h screening period, a 24 h study drug infusion phase (day 1), a post-treatment phase (days 2-4), and a follow-up visit at day 30 (FIG. 5). Patients could be enrolled at any time after admission. The use of oral medications was permitted during the study with the exception of digoxin. Intravenous diuretics were permitted during the treatment period at stable doses, unless changes were required due to clinically relevant variations of the patient's condition. If treatment with an inotrope was clinically necessary during the infusion period, the investigational product was discontinued. Echocardiography was performed according to international standards at screening, baseline (just before starting study drug infusion), 6, 24 h (just before infusion end), and 48 h after infusion start. Echocardiographic measurements at baseline, 6, 24, and 48 h were evaluated in a blinded fashion by a CoreLab located at the University and Civil Hospital of Brescia, Italy. E/e′ ratio was calculated as the ratio between the peak early diastolic mitral flow velocity (E wave) and the mean of the annular lateral (e′ lateral) and septal (e′ septal) velocities, according to standard guidelines.^20 Intraobserver and interobserver variability in E/e′ measurement was tested on the 15% of the recordings and is shown in FIG. 6. Self-reported dyspnoea was assessed using a 100 mm VAS, with zero representing the worst level of dyspnoea and […] the best breathing condition. Twenty-four hour ECG monitoring was performed using a three-lead device (Mortara industries, Milwaukee, WI, USA) during the day of screening, the infusion period, and the day after (the latter was optional). Analysis was conducted by a blinded CoreLab (ICS Maugeri, Italy). Serial measurements of NT-proBNP throughout the study were analyzed by a central laboratory (Elecsys® proBNP II, Roche®, Basel, Switzerland). Samples for cTnT were taken at baseline, 3, 6, 12, 24, 48, and 72 h and on day 30, and were analyzed by a core laboratory (Elecsys® high-sensitivity assay, Roche®, Basel, Switzerland). AEs were monitored throughout the duration of the study.
# The study was designed as a mechanistic and safety study to assess the effects of a 24 h istaroxime infusion in patients hospitalized for AHF. […]
# [2] = system: patients hospitalized for acute heart failure (AHF); experiment: Clinical secondary endpoints: in-hospital worsening heart failure to day 4, readmissions/ED visits to day 30, length of stay; format: in vivo, human
# Method: as §1
# The study was designed as a mechanistic and safety study to assess the effects of a 24 h istaroxime infusion in patients hospitalized for AHF. Based on the changes observed in the HORIZON-HF trial, we assumed that a sample size of at least 20 patients in the placebo group in each cohort with 2:1 randomization to istaroxime would provide sufficient power to assess the effect of istaroxime on the main haemodynamic parameters. Analyses were conducted using a pre-specified modified intention-to-treat (mITT) protocol, including all randomized patients in whom study drug infusion had been initiated and with at least […] available evaluation of efficacy after the baseline. Biomarker and eGFR values were analyzed using medians and inner/outer quartiles, and active treatment was compared to placebo using the Wilcoxon rank-sum test. Dyspnoea scores by VAS were analyzed using mixed model regression with treatment, center, time point, gender, baseline cTnT, presence of atrial fibrillation, treatment by time point interaction, baseline value, and baseline value by time point interaction in the model. Echocardiographic parameters were compared between treatment groups using linear regression with treatment in the model. Categorical variables were summarized as frequency and percent and compared between treatment groups using the Cochran-Mantel-Haenszel test, controlling for study site. AEs were recorded for all enrolled patients and were summarized as AEs, serious AEs (SAEs), AEs leading to discontinuation, and SAEs leading to death. All analyses were conducted using the SAS® System for Windows™, versions 9.1.3 and 9.4.
# [3] = system: patients hospitalized for acute heart failure (AHF); design: species or system human; conditions: in vivo
# Method: as §1, with “Elevations in cTnT were considered significant if they were >50% or >20% from baseline values, for patients with cTnT below or above the 99% upper reference limit at baseline, respectively.” left out
# [4] = system: dogs with chronic ischemic heart failure; conditions: cited from earlier work
smiles,measurement,setting,value
"C[C@]12CCC(=NOCCN)C[C@@H]1C(=O)C[C@@H]1[C@@H]2CC[C@]2(C)C(=O)CC[C@@H]12 [Istaroxime, (E,Z)-3-((2-aminoethoxy)imino)androstane-6,17-dione hydrochloride]","Dyspnoea VAS score, mean change from baseline","[1]; 0.5 μg/Kg/min, 3 hours",4.113
same,"Dyspnoea VAS score, mean change from baseline","[1]; 0.5 μg/Kg/min, 6 hours",6.582
same,"Dyspnoea VAS score, mean change from baseline","[1]; 0.5 μg/Kg/min, 12 hours",6.772
same,"Dyspnoea VAS score, mean change from baseline","[1]; 0.5 μg/Kg/min, 24 hours",9.276
same,"Dyspnoea VAS score, mean change from baseline","[1]; 0.5 μg/Kg/min, 48 hours",10.948
same,"Dyspnoea VAS score, mean change from baseline","[1]; 1.0 μg/Kg/min, 3 hours",4.212
same,"Dyspnoea VAS score, mean change from baseline","[1]; 1.0 μg/Kg/min, 6 hours",8.637
same,"Dyspnoea VAS score, mean change from baseline","[1]; 1.0 μg/Kg/min, 12 hours",9.076
same,"Dyspnoea VAS score, mean change from baseline","[1]; 1.0 μg/Kg/min, 24 hours",13.332
same,"Dyspnoea VAS score, mean change from baseline","[1]; 1.0 μg/Kg/min, 48 hours",10.075
same,"Length of stay, median",[2]; 0.5 μg/Kg/min,7.0 days
same,"Hospital readmission/ED visits to Day 30, count of patients",[2]; 0.5 μg/Kg/min (n = 41),4
same,"Hospital readmission/ED visits to Day 30, percent of patients",[2]; 0.5 μg/Kg/min (n = 41),(9.8%)
same,"Worsening heart failure to day 4, count of patients",[2]; 0.5 μg/Kg/min (n = 41),1
same,"Worsening heart failure to day 4, percent of patients",[2]; 0.5 μg/Kg/min (n = 41),(2.4%)
same,"Length of stay, median",[2]; 1.0 μg/Kg/min,7.0 days
same,"Hospital readmission/ED visits to Day 30, count of patients",[2]; 1.0 μg/Kg/min (n = 40),4
same,"Hospital readmission/ED visits to Day 30, percent of patients",[2]; 1.0 μg/Kg/min (n = 40),(10%)
same,"Worsening heart failure to day 4, count of patients",[2]; 1.0 μg/Kg/min (n = 40),3
same,"Worsening heart failure to day 4, percent of patients",[2]; 1.0 μg/Kg/min (n = 40),(7.5%)
same,Renal function measured by eGFR,[3],generally increased
same,"myocardial relaxation (e′ diastolic velocity, tissue Doppler)",[4]; compared to dobutamine,improved myocardial relaxation
same,peak heart rate,[4]; compared with dobutamine,significantly lower
